A short description of the data set: Solubility of aciclovir in water at room temperature. Type of data set: physicochemical. The conditions noted are these: room temperature (25° C.). On the procedure: Thus, an S/O solution could not be obtained. Thus, an aciclovir dispersion was prepared in the form of an S/O solution.

Consider `Nc1nc2c(ncn2COCCO)c(=O)[nH]1` [aciclovir], for which the solubility in water entry is “very poor”.

These data come from patent publication US20100298447A1, “COMPOSITE PRODUCT OF LOW-SOLUBILITY DRUG AND SURFACTANT, AND PROCESS FOR PRODUCTION THEREOF” (priority 2007, published 2010).
